Test results taken from patent US20230233569A1 (Revolution Medicines, Inc., priority 2020, published 2023).
Read-outs that look alike come from different tables or passages of the source.

How the values were obtained:
Experiment in all cases: Ras-Raf disruption / FRET / MOA assay (BRAF RBD)
Type in all cases: biochemical
[1] = molecular target: KRAS G12D (Homo sapiens, UniProt P01116+P62937, G12D); settings: with Cyclophilin A
Method in brief: (§1)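 TR-FRET in 25 mM HEPES pH 7.3, 100 mM NaCl, 5 mM MgCl2, 0.1% BSA, 0.002% Tween20 with 25 μM Cyclophilin A, 12.5 nM His6-Ras-GMPPNP, 50 nM GST-BRAF RBD; compound 10-point 3-fold series from 30 μM. After 3 h at 25 °C, Eu anti-His/APC anti-GST added for 1.5 h; IC50 from ratio decrease versus DMSO.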

[2] = molecular target: KRAS G12S (Homo sapiens, UniProt P01116+P62937, G12S); settings: with Cyclophilin A
Method in brief: as §1

[3] = molecular target: KRAS G12V (Homo sapiens, UniProt P01116+P62937, G12V); settings: with Cyclophilin A
Method in brief: as §1

[4] = molecular target: KRAS G13C (Homo sapiens, UniProt P01116+P62937, G13C); settings: with Cyclophilin A
Method in brief: as §1

[5] = molecular target: KRAS G13D (Homo sapiens, UniProt P01116+P62937, G13D); settings: with Cyclophilin A
Method in brief: as §1

[6] = molecular target: KRAS WT (Homo sapiens, UniProt P01116+P62937); settings: with Cyclophilin A
Method in brief: as §1

[7] = molecular target: NRAS G12C (Homo sapiens, UniProt P01111+P62937, G12C)
Method in brief: as §1

[8] = molecular target: KRAS G12C (Homo sapiens, UniProt P01116+P62937, G12C); settings: with Cyclophilin A
Method in brief: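 His6-K-Ras G12C-GMPPNP (12.5 nM), GST-BRAF RBD (50 nM) and tagless Cyclophilin A (25 μM) incubated 3 h at 25 °C with compound (10-point 3-fold series from 30 μM), pH 7.3 HEPES buffer. Anti-His Eu/anti-GST APC added for 1.5 h; decreased TR-FRET ratio vs DMSO gives IC50.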

[9] = Ras-Raf disruption, read-out: KRAS G12D FRET data IC50
[10] = Ras-Raf disruption, read-out: KRAS G12S FRET data IC50
[11] = Ras-Raf disruption, read-out: KRAS G12V FRET data IC50
[12] = Ras-Raf disruption, read-out: KRAS G13C FRET data IC50
[13] = Ras-Raf disruption, read-out: KRAS G13D FRET data IC50
[14] = Ras-Raf disruption, read-out: KRAS WT FRET data IC50
[15] = NRAS G12C, read-out: NRAS G12C FRET data IC50
[16] = Ras-Raf disruption, read-out: KRAS G12C FRET data IC50

KRAS WT, sequence (P01116 1-169 isoform P01116-2 limits assumed): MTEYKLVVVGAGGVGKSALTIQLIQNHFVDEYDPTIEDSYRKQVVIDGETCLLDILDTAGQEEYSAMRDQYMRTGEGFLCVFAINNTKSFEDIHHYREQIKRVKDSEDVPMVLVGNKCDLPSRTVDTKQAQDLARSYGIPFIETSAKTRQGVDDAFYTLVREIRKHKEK
KRAS WT, sequence (P62937 whole entry): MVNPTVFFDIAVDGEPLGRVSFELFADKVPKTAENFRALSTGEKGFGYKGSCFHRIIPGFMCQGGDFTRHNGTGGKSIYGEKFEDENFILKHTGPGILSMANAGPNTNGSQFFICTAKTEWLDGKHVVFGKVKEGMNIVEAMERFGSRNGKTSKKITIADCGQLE
KRAS G13D, sequence (P01116 1-169 isoform P01116-2 G13D limits assumed): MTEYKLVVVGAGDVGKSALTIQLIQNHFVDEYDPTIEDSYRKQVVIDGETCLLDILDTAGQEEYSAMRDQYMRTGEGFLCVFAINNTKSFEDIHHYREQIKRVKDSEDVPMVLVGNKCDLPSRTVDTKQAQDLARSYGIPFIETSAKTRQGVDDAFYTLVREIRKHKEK
KRAS G13D, sequence (P62937 whole entry): as the sequence (P62937 whole entry) above
KRAS G12C, sequence (P01116 1-169 isoform P01116-2 G12C limits assumed): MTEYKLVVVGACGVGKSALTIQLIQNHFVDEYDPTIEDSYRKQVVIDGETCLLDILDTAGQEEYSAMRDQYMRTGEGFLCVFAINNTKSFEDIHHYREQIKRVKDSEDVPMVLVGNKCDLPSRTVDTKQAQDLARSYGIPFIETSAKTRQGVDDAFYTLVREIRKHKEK
KRAS G12C, sequence (P62937 whole entry): as the sequence (P62937 whole entry) above
NRAS G12C, sequence (P01111 whole entry G12C): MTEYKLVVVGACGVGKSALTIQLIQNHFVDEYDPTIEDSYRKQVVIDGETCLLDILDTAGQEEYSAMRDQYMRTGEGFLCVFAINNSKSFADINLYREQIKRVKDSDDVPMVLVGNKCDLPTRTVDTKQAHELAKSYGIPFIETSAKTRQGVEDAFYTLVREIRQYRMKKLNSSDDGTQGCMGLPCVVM
NRAS G12C, sequence (P62937 whole entry): as the sequence (P62937 whole entry) above
KRAS G12S, sequence (P01116 1-169 isoform P01116-2 G12S limits assumed): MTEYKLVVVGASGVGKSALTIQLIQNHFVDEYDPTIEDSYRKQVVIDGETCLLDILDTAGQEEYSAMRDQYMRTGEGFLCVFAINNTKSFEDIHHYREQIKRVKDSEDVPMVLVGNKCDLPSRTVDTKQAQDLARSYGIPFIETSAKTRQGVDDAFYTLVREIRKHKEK
KRAS G12S, sequence (P62937 whole entry): as the sequence (P62937 whole entry) above
KRAS G12V, sequence (P01116 1-169 isoform P01116-2 G12V limits assumed): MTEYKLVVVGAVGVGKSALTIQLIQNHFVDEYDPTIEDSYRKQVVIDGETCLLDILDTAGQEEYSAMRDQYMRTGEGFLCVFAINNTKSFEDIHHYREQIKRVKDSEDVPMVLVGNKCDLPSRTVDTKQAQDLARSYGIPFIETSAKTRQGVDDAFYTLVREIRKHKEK
KRAS G12V, sequence (P62937 whole entry): as the sequence (P62937 whole entry) above
KRAS G13C, sequence (P01116 1-169 isoform P01116-2 G13C limits assumed): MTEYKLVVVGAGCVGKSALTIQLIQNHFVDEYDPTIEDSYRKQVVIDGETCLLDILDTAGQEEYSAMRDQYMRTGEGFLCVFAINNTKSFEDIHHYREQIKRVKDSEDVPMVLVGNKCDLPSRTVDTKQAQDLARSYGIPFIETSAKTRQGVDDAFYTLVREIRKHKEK
KRAS G13C, sequence (P62937 whole entry): as the sequence (P62937 whole entry) above
KRAS G12D, sequence (P01116 1-169 isoform P01116-2 G12D limits assumed): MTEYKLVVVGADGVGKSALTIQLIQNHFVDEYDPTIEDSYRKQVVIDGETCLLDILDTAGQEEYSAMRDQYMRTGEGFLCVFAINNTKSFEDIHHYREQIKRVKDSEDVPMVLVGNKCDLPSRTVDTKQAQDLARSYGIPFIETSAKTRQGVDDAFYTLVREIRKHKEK
KRAS G12D, sequence (P62937 whole entry): as the sequence (P62937 whole entry) above

Row | SMILES | IC50 [1, 9] [nM] | IC50 [2, 10] [nM] | IC50 [3, 11] [nM] | IC50 [4, 12] [nM] | IC50 [5, 13] [nM] | IC50 [6, 14] [nM] | IC50 [7, 15] [nM] | IC50 [8, 16] [nM] | IC50 ([1]; KRAS G12D FRET data IC50, Ras-Raf disruption) [nM] | IC50 ([2]; KRAS G12S FRET data IC50, Ras-Raf disruption) [nM] | IC50 ([3]; KRAS G12V FRET data IC50, Ras-Raf disruption) [nM] | IC50 ([4]; KRAS G13C FRET data IC50, Ras-Raf disruption) [nM] | IC50 ([5]; KRAS G13D FRET data IC50, Ras-Raf disruption) [nM] | IC50 ([6]; KRAS WT FRET data IC50, Ras-Raf disruption) [nM] | IC50 ([7]; NRAS G12C FRET data IC50, NRAS G12C) [nM] | IC50 ([8]; KRAS G12C FRET data IC50, Ras-Raf disruption) [nM]
1 | CCn1c(-c2cccnc2[C@H](C)OC)c2c3cc(ccc31)-c1cc(O)cc(c1)C[C@H](NC(=O)[C@H](C(C)C)N(C)C(=O)[C@@]1(F)CCN(C(=O)[C@H]3CN3)C1)C(=O)N1CCC[C@H](N1)C(=O)OCC(C)(C)C2 [Example 171] | 10 to 100 | 10 to 100 | 10 to 100 | 10 to 100 | 10 to 100 | 10 to 100 | < 10 | < 10 | – | – | – | – | – | – | – | –
2 | CCn1c(-c2cccnc2[C@H](C)OC)c2c3cc(ccc31)-c1cc(O)cc(c1)C[C@H](NC(=O)[C@H](C(C)C)N1CCC3(CN(C(=O)[C@H]4CN4)C3)C1=O)C(=O)N1CCC[C@H](N1)C(=O)OCC(C)(C)C2 [Example 115] | 100 to 1000 | 100 to 1000 | 100 to 1000 | 10 to 100 | 10 to 100 | 10 to 100 | < 10 | < 10 | – | – | – | – | – | – | – | –
3 | CCn1c(-c2cccnc2[C@H](C)OC)c2c3cc(ccc31)-c1cc(O)cc(c1)C[C@H](NC(=O)[C@H](C(C)C)N(C)C(=O)[C@H]1C[C@H](NC(=O)[C@H]3CN3)C1)C(=O)N1CCC[C@H](N1)C(=O)OCC(C)(C)C2 [Example 182] | 100 to 1000 | 10 to 100 | 10 to 100 | < 10 | 10 to 100 | 10 to 100 | 10 to 100 | 10 to 100 | – | – | – | – | – | – | – | –
4 | CCn1c(-c2cccnc2[C@H](C)OC)c2c3cc(ccc31)-c1cc(O)cc(c1)C[C@H](NC(=O)[C@H](C(C)C)N(C)C(=O)CN(C)C(=O)[C@H]1CN1)C(=O)N1CCC[C@H](N1)C(=O)OCC(C)(C)C2 (single isomer, unassigned) [Example 42B] | – | – | – | – | – | – | – | – | 1000 to 10000 | 1000 to 10000 | 1000 to 10000 | 100 to 1000 | 1000 to 10000 | 1000 to 10000 | 100 to 1000 | 100 to 1000
5 | CCn1c(-c2cccnc2[C@H](C)OC)c2c3cc(ccc31)-c1cc(O)cc(c1)C[C@H](NC(=O)[C@H](C(C)C)N(C)C(=O)c1ncc(NC(=O)[C@H]3CN3)n1C)C(=O)N1CCC[C@H](N1)C(=O)OCC(C)(C)C2 [Example 84] | 1000 to 10000 | 100 to 1000 | 100 to 1000 | < 10 | 100 to 1000 | 100 to 1000 | 10 to 100 | 10 to 100 | – | – | – | – | – | – | – | –
6 | CCn1c(-c2cccnc2[C@H](C)OC)c2c3cc(ccc31)-c1cccc(c1)C[C@H](NC(=O)[C@H](C(C)C)N(C)C(=O)[C@H]1CC[C@H](N=C=NC(C)C)C1)C(=O)N1CCC[C@H](N1)C(=O)OCC(C)(C)C2 [Example 124] | 1000 to 10000 | > 10000 | 1000 to 10000 | 10 to 100 | > 10000 | 1000 to 10000 | 10 to 100 | 10 to 100 | – | – | – | – | – | – | – | –
7 | CCn1c(-c2cccnc2[C@H](C)OC)c2c3cc(ccc31)-c1cc(O)cc(c1)C[C@H](NC(=O)[C@H](C1CCCC1)N1CC[C@]3(CCN(C(=O)[C@H]4CN4)C3)C1=O)C(=O)N1CCC[C@H](N1)C(=O)OCC(C)(C)C2 [Example 175, (2S)-2-((S)-7-((R)-aziridine-2-carbonyl)-1-oxo-2,7-diazaspiro[4.4]nonan-2-yl)-2-cyclopentyl-N-((6^3S,4S)-1^1-ethyl-2^5-hydroxy-1^2-(2-((S)-1-methoxyethyl)pyridin-3-yl)-10,10-dimethyl-5,7-dioxo-6^1,6^2,6^3,6^4,6^5,6^6-hexahydro-1^1H-8-oxa-1(5,3)-indola-6(1,3)-pyridazina-2(1,3)-benzenacycloundecaphane-4-yl)acetamide] | 10 to 100 | 10 to 100 | 10 to 100 | 10 to 100 | 10 to 100 | 10 to 100 | < 10 | < 10 | – | – | – | – | – | – | – | –
8 | CCn1c(-c2cccnc2[C@H](C)OC)c2c3cc(ccc31)-c1cccc(c1)C[C@H](NC(=O)[C@H](C(C)C)N(C)C(=O)[C@H]1C[C@H](N=C=NCc3ccccc3OC)C1)C(=O)N1CCC[C@H](N1)C(=O)OCC(C)(C)C2 [Example 77] | 1000 to 10000 | 1000 to 10000 | 1000 to 10000 | 10 to 100 | > 10000 | 1000 to 10000 | 10 to 100 | 10 to 100 | – | – | – | – | – | – | – | –
9 | CCn1c(-c2cccnc2[C@H](C)OC)c2c3cc(ccc31)-c1cc(O)cc(c1)C[C@H](NC(=O)[C@H](C(C)C)N(C)C(=O)c1ncc(NC(=O)[C@@H]3CN3)n1C)C(=O)N1CCC[C@H](N1)C(=O)OCC(C)(C)C2 [Example 83] | 100 to 1000 | 10 to 100 | 10 to 100 | 10 to 100 | 10 to 100 | 10 to 100 | 10 to 100 | 10 to 100 | – | – | – | – | – | – | – | –
10 | CCn1c(-c2cccnc2[C@H](C)OC)c2c3cc(ccc31)-c1cc(O)cc(c1)C[C@H](NC(=O)[C@H](C(C)C)N(C)C(=O)c1ccc(NC(=O)[C@@H]3CN3)cn1)C(=O)N1CCC[C@H](N1)C(=O)OCC(C)(C)C2 (atropisomer, axis not shown) [Example 187] | 100 to 1000 | 100 to 1000 | 100 to 1000 | 10 to 100 | 100 to 1000 | 100 to 1000 | 100 to 1000 | 100 to 1000 | – | – | – | – | – | – | – | –
11 | CCn1c(-c2cccnc2[C@H](C)OC)c2c3cc(ccc31)-c1cc(O)cc(c1)C[C@H](NC(=O)[C@H](C(C)C)N(C)C(=O)N1CCN(C(=O)[C@H]3CN3)CC1)C(=O)N1CCC[C@H](N1)C(=O)OCC(C)(C)C2 [Example 177, 4-((R)-aziridine-2-carbonyl)-N-((2S)-1-(((6^3S,4S)-1^1-ethyl-2^5-hydroxy-1^2-(2-((S)-1-methoxyethyl)pyridin-3-yl)-10,10-dimethyl-5,7-dioxo-6^1,6^2,6^3,6^4,6^5,6^6-hexahydro-1^1H-8-oxa-1(5,3)-indola-6(1,3)-pyridazina-2(1,3)-benzenacycloundecaphane-4-yl)amino)-3-methyl-1-oxobutan-2-yl)-N-methylpiperazine-1-carboxamide] | 100 to 1000 | 10 to 100 | 10 to 100 | 10 to 100 | 10 to 100 | 10 to 100 | 10 to 100 | 10 to 100 | – | – | – | – | – | – | – | –
12 | CCn1c(-c2cccnc2[C@H](C)OC)c2c3cc(ccc31)-c1cc(O)cc(c1)C[C@H](NC(=O)[C@H](C(C)C)N(C)C(=O)c1ccc([C@@H]3CN3)nc1)C(=O)N1CCC[C@H](N1)C(=O)OCC(C)(C)C2 [Example 87] | 1000 to 10000 | 100 to 1000 | 100 to 1000 | 10 to 100 | 100 to 1000 | 100 to 1000 | 10 to 100 | 10 to 100 | – | – | – | – | – | – | – | –
13 | CCn1c(-c2cccnc2[C@H](C)OC)c2c3cc(ccc31)-c1cc(O)cc(c1)C[C@H](NC(=O)[C@H](C(C)C)N(C)C(=O)[C@H]1CN1)C(=O)N1CCC[C@H](N1)C(=O)OCC(C)(C)C2 [Example 112] | 100 to 1000 | 100 to 1000 | 100 to 1000 | 10 to 100 | 100 to 1000 | 10 to 100 | 100 to 1000 | 100 to 1000 | – | – | – | – | – | – | – | –
14 | CCn1c(-c2cccnc2[C@H](C)OC)c2c3cc(ccc31)-c1cc(O)cc(c1)C[C@H](NC(=O)[C@H](C(C)C)N(C)C(=O)N1CC(NC(=O)[C@@H]3CN3)C1)C(=O)N1CCC[C@H](N1)C(=O)OCC(C)(C)C2 (atropisomer, axis not shown) [Example 188] | 100 to 1000 | 100 to 1000 | 100 to 1000 | 10 to 100 | 100 to 1000 | 100 to 1000 | 10 to 100 | 10 to 100 | – | – | – | – | – | – | – | –
